As usually defined, the Kd is the equilibrium constant for the complex coming apart.

Our source for the Kd values is PubChem BioAssay AID1549 (Sanford-Burnham Center for Chemical Genomics, 2009).

Activity calls are given as the source filed them. The rule behind the calls is not given here.

The assay addresses Influenza A virus M2 proton channel (A/TW/4845/1999 H1N1). Briefly: NMR binding screen, influenza A virus M2 proton channel, Kd (AID 1549). Particulars: M2 protein.
As to `COc1ccccc1NC(=O)c1ccc(C)s1`, the Kd was > 4 mM (inactive).
Take `NC(=O)c1cc(N)ccc1N1CCCCC1`: the Kd is > 4 mM (inactive).
As for `CC1(C)C(=O)N(O)C(C)(C)C(=O)N1O`, the Kd was > 4 mM (inactive).
As for `COC(=O)c1cccc(N)c1`, the Kd was > 4 mM (inactive).
Consider `CCOc1cccc(C(=O)c2ccc(O)c(O)c2O)c1`, for which the Kd is > 4 mM (inactive).
As for `C=CC(C)(O)CC/C=C(\C)CCC=C(C)C` (centres undefined), the figure is > 4 mM (inactive); as for `CC(=O)Oc1ccccc1N1C(=O)C=CC1=O`, > 4 mM (inactive); as for `O=[N+]([O-])c1ccc(/C=N/c2ncn[nH]2)cc1`, > 4 mM (inactive).
On to `CCC(C)C(=O)O[C@H]1[C@H](O)C2C(CN3CC(C)CCC3[C@@]2(C)O)C2C[C@]34O[C@]5(O)C(OC(=O)C(C)(O)C(C)O)CC[C@@]3(C)C5C(OC(C)=O)[C@@H](OC(C)=O)C4[C@@]21O` (some centres undefined), for which the Kd was > 4 mM (inactive).
Turning to `CC(C)Oc1ccc(C2CC(=O)NNC2=O)cc1` (centres undefined), the Kd was > 4 mM (inactive).
On to `Cc1ccccc1NC(=O)CSc1ccnc(=O)[nH]1`, for which the Kd was > 4 mM (inactive).
Take `NC(=O)Cc1nc2ccccc2[nH]1`: the Kd is > 4 mM (inactive).
As for `CS(=O)(=O)N1CCN(c2ccccc2F)CC1`, the Kd is > 4 mM (inactive).
Turning to `O=c1ccn(Cc2ccccc2)c(=O)n1Cc1ccccc1`, the Kd is > 4 mM (inactive).
With `O=C(O)CNS(=O)(=O)c1cccs1` the figure was > 4 mM (inactive); with `COc1cc(N)ccc1NC(=O)c1cccs1`, > 4 mM (inactive); with `CN(C)C(=S)Nc1ccc([N+](=O)[O-])cc1`, > 4 mM (inactive).
With `NC1=NC(=O)CC(C(=O)Nc2ccccc2)S1` (centres undefined) the figure was > 4 mM (inactive); with `COC(=O)Cc1csc(N)n1`, > 4 mM (inactive); with `OCCCc1nc2ccccc2[nH]1`, > 4 mM (inactive).
For `CNC(=O)C1=NCCCc2cc(OC)c(OC)cc21`, the Kd is > 4 mM (inactive).
Consider `N#Cc1cn(CC(=O)N2CCCC2)c2ccccc12`, for which the Kd was > 4 mM (inactive).
Consider `Cc1nn2c(=O)nc3sc4c(c3c2[nH]c1=O)CCCC4`, for which the Kd was > 4 mM (inactive).
In the case of `CS(=O)(=O)NN=C1CCCCC1`, the Kd was > 4 mM (inactive).
With `Cc1cc(C)n2nc(SCC(=O)c3ccccc3)nc2n1` the figure was > 4 mM (inactive); with `Cc1cccc(CO)n1`, > 4 mM (inactive).
As for `CC(CCC(=O)O)[C@H]1CCC2C3CC[C@@H]4C[C@H](O)CC[C@]4(C)C3C[C@H](O)[C@@]21C` (some centres undefined), the figure is > 4 mM (inactive).
With `Cc1onc(-c2ccccc2)c1CO` the figure was > 4 mM (inactive); with `OCc1cccc2nonc12`, > 4 mM (inactive).
For the compound `Cc1cc(=O)oc2cc(O)c(O)cc12`, the Kd was > 4 mM (inactive).
`COc1ccc(NC(=O)CCCC(=O)O)c(OC)c1`: the Kd was > 4 mM (inactive).
As for `Cc1ccccc1NC(=O)CC1NCCNC1=O` (centres undefined), the Kd was > 4 mM (inactive).
`O=C1NC(=S)NC(=O)C1=Cc1cccs1`: the Kd is > 4 mM (inactive).
With `CCOC(=O)C1=C(O)CCN(C)C1` the figure was > 4 mM (inactive).
For `CC1(C)Cc2nc(N3CCOCC3)c(C#N)cc2CO1`, the Kd is > 4 mM (inactive).
`O=c1ccc2ccc(O)cc2o1`: the Kd was > 4 mM (inactive).
With `COc1ccc2c(c1OC)C(=O)O[C@H]2[C@H]1c2cc3c(cc2CCN1C)OCO3` the figure was > 4 mM (inactive); with `Cc1nnc(NCCO)[nH]c1=O`, > 4 mM (inactive); with `Cn1[nH]c(C(F)(F)F)cc1=O`, > 4 mM (inactive).
As for `Cc1ccc(CN2CCN(C(=O)C3CCC3)CC2)cc1`, the figure is > 4 mM (inactive); as for `COCC(=O)Nc1cc2c3c(c1)CCN3C(=O)CC2`, > 4 mM (inactive).
As to `Cc1ccc(-c2nc(N)n(C(=O)c3cccnc3)n2)cc1`, the Kd was > 4 mM (inactive).
With `Cn1cc(Cl)c(C(=O)NC2CCCC2)n1`, the Kd is > 4 mM (inactive).
With `Cc1cc(C(=O)Nc2ccccn2)no1` the figure was > 4 mM (inactive); with `C=C[C@H]1CN2CC[C@H]1C[C@H]2[C@H](O)c1ccnc2ccccc12`, > 4 mM (inactive).
As for `O=C(CN1C(=O)CCC1=O)c1ccccc1`, the figure is > 4 mM (inactive).
In the case of `O=C(O)CCc1nc2ccccc2[nH]c1=O`, the Kd is > 4 mM (inactive).
As to `O=C1CC(=O)N2N=C(c3ccccc3)SC2=N1`, the Kd was > 4 mM (inactive).
With `CCCc1cc2c(c(NC(C)=O)n1)c(=O)oc1ccccc12` the figure was > 4 mM (inactive).
As for `Cc1ccc(C(=O)Nn2cnnc2)c(Cl)c1`, the figure is > 4 mM (inactive); as for `COCC(=O)Nc1ccc(C)c(Cl)c1`, > 4 mM (inactive).
With `S=C(NC1=NCCS1)Nc1ccccc1` the figure was > 4 mM (inactive).
`NC1=NC(=O)/C(=C\c2cccc(C(=O)O)c2)S1`: the Kd is > 4 mM (inactive).
With `Cc1nc(-c2cc(CO)no2)cs1`, the Kd was > 4 mM (inactive).
As for `NC(=O)CSc1ccccn1`, the figure is > 4 mM (inactive).
With `CCCCn1c(S(=O)(=O)O)nc2ccccc21` the figure was > 4 mM (inactive); with `Cn1c(=O)c2cn3ncccc3c2n(C)c1=O`, > 4 mM (inactive).
In the case of `CC1(C)Cc2nc3[nH]c(=S)[nH]c(=O)c3cc2CO1`, the Kd was > 4 mM (inactive).
As for `O=C1C=CC(=O)N1c1ccccc1O`, the figure is > 4 mM (inactive); as for `Cc1ccc(S(=O)(=O)/N=C2\NC(=O)CS2)cc1`, > 4 mM (inactive); as for `COc1c(O)cc(O)cc1O`, > 4 mM (inactive).
On to `O=C(c1ccncc1)N1CCN(C(=O)c2ccncc2)CC1`, for which the Kd was > 4 mM (inactive).
With `COc1c2occc2c(OC)c2c(=O)cc(C)oc12`, the Kd is > 4 mM (inactive).
With `OCc1ccc(-c2ccccn2)s1` the figure was > 4 mM (inactive); with `Cc1csc(NC(=O)c2cccs2)n1`, > 4 mM (inactive); with `Cn1nc(C(=O)Nc2cccnc2)c2ccccc2c1=O`, > 4 mM (inactive).
In the case of `COc1cc(/C=C/C(=O)/C=C(O)/C=C/c2ccc(O)c(OC)c2)ccc1O`, the Kd is > 4 mM (inactive).
With `O=C(Cc1ccc(F)cc1)Nc1ncccn1`, the Kd is > 4 mM (inactive).
With `CSc1ncc(CO)n1Cc1ccccc1` the figure was > 4 mM (inactive).
With `COc1cc(S(=O)(=O)N(C)C)ccc1F` the figure was > 4 mM (inactive).
As for `NC(=O)CSc1nc2ccccc2c(=O)[nH]1`, the figure is > 4 mM (inactive).
In the case of `CC(C)(C#N)O[C@@H]1O[C@H](CO)[C@@H](O)[C@H](O)[C@H]1O`, the Kd is > 4 mM (inactive).
With `COC1=C(OC)C(=O)C(C/C=C(\C)CC/C=C(\C)CC/C=C(\C)CC/C=C(/C)CC/C=C(\C)CC/C=C(\C)CC/C=C(\C)CC/C=C(\C)CC/C=C(\C)CCC=C(C)C)=C(C)C1=O` the figure was > 4 mM (inactive); with `CCOC(=O)N1CCN(c2ncnc3c2cnn3C)CC1`, > 4 mM (inactive).
As for `COC(=O)[C@@]1(C)CCC[C@]2(C)c3ccc(O)c(C(C)C)c3CCC12` (some centres undefined), the figure is > 4 mM (inactive); as for `Cc1noc(C)c1C(=O)NCc1cccs1`, > 4 mM (inactive).
As for `CC1=CC2C(C(C)C)CCC(C)(O)C2CC1` (centres undefined), the Kd is > 4 mM (inactive).
With `CCCCCCCCCCCC1=C(O)C(=O)C=C(O)C1=O` the figure was > 4 mM (inactive); with `Nc1cc(=O)[nH]c(=S)n1CCc1ccccc1`, > 4 mM (inactive).
As to `COC(=O)N(c1ccccc1)P1(=S)OCCO1`, the Kd is > 4 mM (inactive).
Turning to `O=C(Nc1cccnc1)Nc1ccc2c(c1)OCO2`, the Kd was > 4 mM (inactive).
Turning to `NC(=O)C1CCN(S(=O)(=O)c2ccccc2)CC1`, the Kd is > 4 mM (inactive).
On to `COc1c(C(C)C)oc2cc3oc(=O)ccc3cc12`, for which the Kd was > 4 mM (inactive).
As for `CC(=O)Nc1sccc1C(N)=O`, the figure is > 4 mM (inactive); as for `COn1c(=O)c(-c2ccco2)[n+]([O-])c2ccccc21`, > 4 mM (inactive).
Regarding `O=C(NC(O)C(=O)c1ccccc1)c1ccco1` (centres undefined), the Kd was > 4 mM (inactive).
With `NC(=O)c1ccc2c(c1)OCO2` the figure was > 4 mM (inactive); with `O=C1NC(=O)C2C3C=CC(O3)C12` (centres undefined), > 4 mM (inactive); with `CC(=O)Nc1ccc2c(c1)C(=O)N(C1CCCCC1)C2=O`, > 4 mM (inactive).
With `Nc1nc2ccccc2n1CCN1CCCC1` the figure was > 4 mM (inactive); with `O=C(NC(=S)NCCO)c1ccccc1`, > 4 mM (inactive).
Regarding `COc1c2ccoc2cc2oc(=O)ccc12`, the Kd was > 4 mM (inactive).
With `Cc1cccc(-c2nnc(-c3ccc(N)cc3)o2)c1` the figure was > 4 mM (inactive).
With `O=C(Nc1ccc2c(c1)CCC2)c1cnccn1`, the Kd is > 4 mM (inactive).
With `S=c1ccc(N2CCCCC2)n[nH]1` the figure was > 4 mM (inactive); with `CCOC(=O)C1C(=O)C2CCN1CC2` (centres undefined), > 4 mM (inactive); with `O=C(Oc1ccc(-c2nnco2)cc1)N1CCOCC1`, > 4 mM (inactive).
With `O=C(O)CCc1c[nH]c2ccccc12` the figure was > 4 mM (inactive); with `CCc1ccc2oc(-c3cc(N)cc(C)c3O)nc2c1`, > 4 mM (inactive).
As for `OCc1csc(-c2cccs2)n1`, the figure is > 4 mM (inactive).
Consider `CN1CCC(NC(=O)Cc2c(F)cccc2Cl)CC1`, for which the Kd is > 4 mM (inactive).
With `COc1ccc(-c2oc3cc(O[C@H]4O[C@H](CO)[C@@H](O)[C@H](O)[C@H]4O)c(OC)c(O)c3c(=O)c2OC)cc1O` the figure was > 4 mM (inactive); with `O=C(O)Cc1noc2ccccc12`, > 4 mM (inactive).
As for `CCOC(=O)CNc1ncnc2c1nnn2CC`, the figure is > 4 mM (inactive).
